Data as given in the NIST ThermoML archive (doi:10.1021/je049610v).
Numbers after ± are expanded uncertainties.

Columns and labels:
[1] = refractive index (Na D-line) (dimensionless); xn = mol fraction of the nth substance listed; details: 101 kPa, Liquid
[2] = xn = mol fraction of the nth substance listed; details: 101 kPa, Liquid

SMILES: COc1ccccc1 [anisole] + CCOC(=O)C(=O)OCC
- refractive index ([1]; 298.15 K, x1 = 1): 1.5148 ± 0.0024
- refractive index ([1]; 303.15 K, x1 = 1): 1.5124 ± 0.0024
- refractive index ([1]; 308.15 K, x1 = 1): 1.5092 ± 0.0024
- mass density ([2]; 298.15 K, x1 = 1): 988.9 ± 2 kg/m3
- speed of sound ([2]; 298.15 K, x1 = 1): 1410 ± 8 m/s
- viscosity ([2]; 298.15 K, x1 = 1): 0.992 ± 0.032 mPa·s
- mass density ([2]; 303.15 K, x1 = 1): 984.1 ± 2.1 kg/m3
- viscosity ([2]; 303.15 K, x1 = 1): 0.918 ± 0.03 mPa·s
- mass density ([2]; 308.15 K, x1 = 1): 979.4 ± 2.1 kg/m3
- viscosity ([2]; 308.15 K, x1 = 1): 0.853 ± 0.028 mPa·s

SMILES: COc1ccccc1 [anisole] + CN(C)C=O
- refractive index ([1]; 298.15 K, x1 = 0.1004): 1.4407 ± 0.0024
- refractive index ([1]; 298.15 K, x1 = 0.196): 1.4513 ± 0.0024
- refractive index ([1]; 298.15 K, x1 = 0.2939): 1.4614 ± 0.0024
- refractive index ([1]; 298.15 K, x1 = 0.3966): 1.4708 ± 0.0024
- refractive index ([1]; 298.15 K, x1 = 0.4975): 1.4798 ± 0.0024
- refractive index ([1]; 298.15 K, x1 = 0.5983): 1.4878 ± 0.0024
- refractive index ([1]; 298.15 K, x1 = 0.6953): 1.4953 ± 0.0024
- refractive index ([1]; 298.15 K, x1 = 0.7984): 1.5024 ± 0.0024
- refractive index ([1]; 298.15 K, x1 = 0.9042): 1.5099 ± 0.0024
- refractive index ([1]; 298.15 K, x1 = 1): 1.5148 ± 0.0024
- refractive index ([1]; 303.15 K, x1 = 0.1004): 1.4381 ± 0.0024
- refractive index ([1]; 303.15 K, x1 = 0.196): 1.4487 ± 0.0024
- refractive index ([1]; 303.15 K, x1 = 0.2939): 1.4587 ± 0.0024
- refractive index ([1]; 303.15 K, x1 = 0.3966): 1.4683 ± 0.0024
- refractive index ([1]; 303.15 K, x1 = 0.4975): 1.4771 ± 0.0024
- refractive index ([1]; 303.15 K, x1 = 0.5983): 1.4852 ± 0.0024
- refractive index ([1]; 303.15 K, x1 = 0.6953): 1.4928 ± 0.0024
- refractive index ([1]; 303.15 K, x1 = 0.7984): 1.5 ± 0.0024
- refractive index ([1]; 303.15 K, x1 = 0.9042): 1.5071 ± 0.0024
- refractive index ([1]; 303.15 K, x1 = 1): 1.5124 ± 0.0024
- refractive index ([1]; 308.15 K, x1 = 0.1004): 1.4356 ± 0.0024
- refractive index ([1]; 308.15 K, x1 = 0.196): 1.4462 ± 0.0024
- refractive index ([1]; 308.15 K, x1 = 0.2939): 1.4558 ± 0.0024
- refractive index ([1]; 308.15 K, x1 = 0.3966): 1.4656 ± 0.0024
- refractive index ([1]; 308.15 K, x1 = 0.4975): 1.4744 ± 0.0024
- refractive index ([1]; 308.15 K, x1 = 0.5983): 1.4825 ± 0.0024
- refractive index ([1]; 308.15 K, x1 = 0.6953): 1.4902 ± 0.0024
- refractive index ([1]; 308.15 K, x1 = 0.7984): 1.4973 ± 0.0024
- refractive index ([1]; 308.15 K, x1 = 0.9042): 1.5043 ± 0.0024
- refractive index ([1]; 308.15 K, x1 = 1): 1.5092 ± 0.0024
- mass density ([2]; 298.15 K, x1 = 0.1004): 951 ± 1.9 kg/m3
- speed of sound ([2]; 298.15 K, x1 = 0.1004): 1456 ± 8 m/s
- viscosity ([2]; 298.15 K, x1 = 0.1004): 0.833 ± 0.027 mPa·s
- mass density ([2]; 298.15 K, x1 = 0.196): 957 ± 1.9 kg/m3
- speed of sound ([2]; 298.15 K, x1 = 0.196): 1451 ± 8 m/s
- viscosity ([2]; 298.15 K, x1 = 0.196): 0.859 ± 0.028 mPa·s
- mass density ([2]; 298.15 K, x1 = 0.2939): 962.9 ± 1.9 kg/m3
- speed of sound ([2]; 298.15 K, x1 = 0.2939): 1445 ± 8 m/s
- viscosity ([2]; 298.15 K, x1 = 0.2939): 0.886 ± 0.029 mPa·s
- mass density ([2]; 298.15 K, x1 = 0.3966): 968.5 ± 1.9 kg/m3
- speed of sound ([2]; 298.15 K, x1 = 0.3966): 1438 ± 8 m/s
- viscosity ([2]; 298.15 K, x1 = 0.3966): 0.912 ± 0.03 mPa·s
- mass density ([2]; 298.15 K, x1 = 0.4975): 973.4 ± 1.9 kg/m3
- speed of sound ([2]; 298.15 K, x1 = 0.4975): 1432 ± 8 m/s
- viscosity ([2]; 298.15 K, x1 = 0.4975): 0.937 ± 0.03 mPa·s
- mass density ([2]; 298.15 K, x1 = 0.5983): 977.6 ± 1.9 kg/m3
- speed of sound ([2]; 298.15 K, x1 = 0.5983): 1427 ± 8 m/s
- viscosity ([2]; 298.15 K, x1 = 0.5983): 0.957 ± 0.031 mPa·s
- mass density ([2]; 298.15 K, x1 = 0.6953): 981.2 ± 2 kg/m3
- speed of sound ([2]; 298.15 K, x1 = 0.6953): 1422 ± 8 m/s
- viscosity ([2]; 298.15 K, x1 = 0.6953): 0.977 ± 0.031 mPa·s
- mass density ([2]; 298.15 K, x1 = 0.7984): 984.7 ± 2 kg/m3
- speed of sound ([2]; 298.15 K, x1 = 0.7984): 1418 ± 8 m/s
- viscosity ([2]; 298.15 K, x1 = 0.7984): 0.994 ± 0.032 mPa·s
- mass density ([2]; 298.15 K, x1 = 0.9042): 987.7 ± 2 kg/m3
- speed of sound ([2]; 298.15 K, x1 = 0.9042): 1413 ± 8 m/s
- viscosity ([2]; 298.15 K, x1 = 0.9042): 1.006 ± 0.032 mPa·s
- mass density ([2]; 298.15 K, x1 = 1): 988.9 ± 2 kg/m3
- speed of sound ([2]; 298.15 K, x1 = 1): 1410 ± 8 m/s
- viscosity ([2]; 298.15 K, x1 = 1): 0.992 ± 0.032 mPa·s
- mass density ([2]; 303.15 K, x1 = 0.1004): 946.6 ± 1.9 kg/m3
- viscosity ([2]; 303.15 K, x1 = 0.1004): 0.787 ± 0.026 mPa·s
- mass density ([2]; 303.15 K, x1 = 0.196): 952.7 ± 2 kg/m3
- viscosity ([2]; 303.15 K, x1 = 0.196): 0.81 ± 0.027 mPa·s
- mass density ([2]; 303.15 K, x1 = 0.2939): 958.2 ± 2 kg/m3
- viscosity ([2]; 303.15 K, x1 = 0.2939): 0.833 ± 0.027 mPa·s
- mass density ([2]; 303.15 K, x1 = 0.3966): 964.1 ± 2 kg/m3
- viscosity ([2]; 303.15 K, x1 = 0.3966): 0.856 ± 0.028 mPa·s
- mass density ([2]; 303.15 K, x1 = 0.4975): 968.8 ± 2 kg/m3
- viscosity ([2]; 303.15 K, x1 = 0.4975): 0.878 ± 0.029 mPa·s
- mass density ([2]; 303.15 K, x1 = 0.5983): 973.2 ± 2 kg/m3
- viscosity ([2]; 303.15 K, x1 = 0.5983): 0.897 ± 0.029 mPa·s
- mass density ([2]; 303.15 K, x1 = 0.6953): 976.9 ± 2 kg/m3
- viscosity ([2]; 303.15 K, x1 = 0.6953): 0.913 ± 0.03 mPa·s
- mass density ([2]; 303.15 K, x1 = 0.7984): 980.3 ± 2 kg/m3
- viscosity ([2]; 303.15 K, x1 = 0.7984): 0.928 ± 0.03 mPa·s
- mass density ([2]; 303.15 K, x1 = 0.9042): 983.3 ± 2.1 kg/m3
- viscosity ([2]; 303.15 K, x1 = 0.9042): 0.938 ± 0.03 mPa·s
- mass density ([2]; 303.15 K, x1 = 1): 984.1 ± 2.1 kg/m3
- viscosity ([2]; 303.15 K, x1 = 1): 0.919 ± 0.03 mPa·s
- mass density ([2]; 308.15 K, x1 = 0.1004): 942.3 ± 2 kg/m3
- viscosity ([2]; 308.15 K, x1 = 0.1004): 0.739 ± 0.025 mPa·s
- mass density ([2]; 308.15 K, x1 = 0.196): 948.2 ± 2 kg/m3
- viscosity ([2]; 308.15 K, x1 = 0.196): 0.76 ± 0.025 mPa·s
- mass density ([2]; 308.15 K, x1 = 0.2939): 953.9 ± 2.1 kg/m3
- viscosity ([2]; 308.15 K, x1 = 0.2939): 0.78 ± 0.026 mPa·s
- mass density ([2]; 308.15 K, x1 = 0.3966): 959.7 ± 2.1 kg/m3
- viscosity ([2]; 308.15 K, x1 = 0.3966): 0.799 ± 0.026 mPa·s
- mass density ([2]; 308.15 K, x1 = 0.4975): 964.4 ± 2.1 kg/m3
- viscosity ([2]; 308.15 K, x1 = 0.4975): 0.819 ± 0.027 mPa·s
- mass density ([2]; 308.15 K, x1 = 0.5983): 968.7 ± 2.1 kg/m3
- viscosity ([2]; 308.15 K, x1 = 0.5983): 0.836 ± 0.028 mPa·s
- mass density ([2]; 308.15 K, x1 = 0.6953): 972.4 ± 2.1 kg/m3
- viscosity ([2]; 308.15 K, x1 = 0.6953): 0.851 ± 0.028 mPa·s
- mass density ([2]; 308.15 K, x1 = 0.7984): 975.9 ± 2.1 kg/m3
- viscosity ([2]; 308.15 K, x1 = 0.7984): 0.863 ± 0.028 mPa·s
- mass density ([2]; 308.15 K, x1 = 0.9042): 978.5 ± 2.1 kg/m3
- viscosity ([2]; 308.15 K, x1 = 0.9042): 0.871 ± 0.029 mPa·s
- mass density ([2]; 308.15 K, x1 = 1): 979.4 ± 2.1 kg/m3
- viscosity ([2]; 308.15 K, x1 = 1): 0.853 ± 0.028 mPa·s
